Reference: patent publication US12357702B2, “Peptidic diagnostic compositions” (S. M. Discovery Group Inc., priority 2013, dated 2025)
Where a SMILES comes first, the peptide text is derived from it. Where no end group is shown, it is not given here. The star is where a group is joined. RhodamineB = CCN(CC)c1ccc2c(-c3ccccc3C(=O)*)c3ccc(=[N+](CC)CC)cc-3oc2c1; 5FAM = O=C1OC2(c3ccc(O)cc3Oc3cc(O)ccc32)c2ccc(C(=O)*)cc21; FAM = fluorescein amidite label

Tests used:
hCMEC/D3 cells [1] = test: LDH cytotoxicity assay; type: cell-based, human; details: 24 h; for LDH leakage in the medium compared to the control: 1 to 20 μM peptide
Method: Cell viability assessment following treatment of cells with the fluorescent peptide FIG. 26A or siRNA/FAM-CGY complex FIG. 26B for 24 h, determined by LDH assay (n=6). Background: untreated cells. To examine the cytotoxicity of the peptide and the siRNA/FAM-CGY complex, the hCMEC/D3 cells were incubated with concentrations 1, 2, 5, 10, 20 μM of the peptide and different relations of siRNA/FAM-CGY complexes (8:5, 16:5 or 24:5) for 24 h, the viability of cells without treatment was used as a control. The cytotoxicity was measured by a LDH assay. The LDH assay measures the membrane integrity as a function of the amount of cytoplasmic LDH leaked into the medium.
The cytoxicity of FAM-CGY peptide and siRNA/FAM-CGY complex was evaluated by […] (LDH) assay (FIG. 26). The hCMEC/D3 cells were incubated with different concentrations of the peptide (from 1 to 20 μM) and different formulations of siRNA/FAM-CGY complexes for 24 h. The viability of cells without treatment was used as a control. The LDH assay has means of measuring the membrane integrity as a function of the amount of cytoplasmic LDH leaked into the medium. […] Thus, there were no significant differences observed between the groups treated with FAM-CGY, FAM-d-CGY and CGY-FAM.

[2] = system: complement activation products SC5d-9, C5a, and C3a; test: complement activation in human serum; details: healthy human serum, low and high concentration
Method: FIGS. 12A, 12B, and 12C are graphs illustrating a complement activation experiment. The complement activation products FIG. 12A. […], FIG. 12B. C5a, and FIG. 12C. C3a were quantified in healthy human serum after incubation of CGY, FAM-CGY and FAM-d-CGY peptide at low and high concentration. Background noise and positive control (Zymosan) are presented for each product. Complement activation and fixation is a fundamental process contributing to macrophage clearance of intravenously injected nanopaticles. Accordingly, complement activation studies in human serum were performed with low and high concentrations of FAM-CGY peptide and other peptides (CGY, FAM-d-CGY) for comparison. […] The responses were relatively low, and close to the background activation. Only a slight level of complement activation was observed compared to the positive control (Zymosan). There were no systematic differences between the activation below and above CMC. Conclusion: The FAM-CGY nanoparticles are unlikely to induce complement-mediated immune reactions following intravenous injection.

hCMEC/D3 cells [3] = test: uptake of FAM-CGY and FAM-GYR-GYR peptides by FACS; type: cell-based, human; details: 1-10 μM, 24 h, all tested concentrations
Method: The different cellular uptake of FAM-CGY and FAM-GYR-GYR peptides in hCMEC/D3 cells was investigated by flow cytometry (FACS). hCMEC/D3 cells (2×10^4/cm^2) were seeded on 24-well plate (Corning, NY) and grown 2 days at 37° C. and 5% CO2 in order to reach 60%-70% confluency. The cells were washed 3 times with pre-heated PBS. The peptide uptake experiments were initiated by adding 200 μL of a range of FAM-CGY and FAM-GYR-GYR in different concentrations (1-10 μM/L, diluted in cell medium containing serum). The double peptide contains the sequence […](SEQ ID NO: 2) and optionally has an N-terminal cysteine residue.
After 24 h incubation at 37° C. with 5% CO2, each chamber was washed with pre-heated PBS 3 times, and harvested by trypsinization. A total of 10,000 cells were analyzed by flow cytometry (FACS Array™ Cell Analysis, BD, USA) (FIG. 35).

[4] = system: brain capillary endothelial cells; details: cited from earlier work
hCMEC/D3 cells [5] = test: double peptide-mediated GFP plasmid transfection; type: cell-based, human
Method: To evaluate double peptide (DP)-mediated gene transfection, different concentrations of DP and constant amounts of pcDNA3.1 NT-GFP expression plasmid (0.3 μg) (the peptide/DNA change ration of 1:10, 1:20 and 1:40 were investigated in this study) were mixed into 50 μL serum free media, and complexes were formed for 1 h at room temperature, after which another 150 μL serum free media was added (total volume of peptide/DNA complex was 200 μL). The cultured hCMEC/D3 cells (2×10^4 cells) were overlaid with 200 μL peptide/DNA complex, followed by incubation for 4 h at 37° C. in 5% CO2 atmosphere. The cultures were then a washed once with serum-free media and transferred to complete media containing 5% serum for growth. After 48 h, GFP gene expressions were monitored by fluorescence microscopy. Lipofectamine® 2000-mediated transfections were performed as described by the manufacturer's protocol (Life Technologies, CA, USA).

[6] = Nanoparticle Tracking Analysis (NTA) of peptide self-assembly; type: physicochemical; details: in MQ water
Method: To investigate whether the polypeptide conjugate can self-assemble, Nanoparticle Tracking Analysis (NTA) technology was employed to detect the peptide aggregation. Briefly, 1 mL peptide solutions with different concentrations (0.5, 1, 2.5 and 5 μM) were prepared by diluting the peptide stock solutions (500 μM) with MQ water and incubate for 30 min at room temperature. NTA measurements were performed with a NanoSight LM20 (NanoSight Ltd., Amesbury, United Kingdom) equipped with a sample chamber with a 405 nm blue laser and a Viton fluoroelastomer O-ring. The peptide samples were injected in the sample chamber with sterile syringes (BD Discardit II, New Jersey, USA) until the liquid reached the tip of the nozzle. All measurements were performed at room temperature. For the pH effect of FAM-CGY peptide assembly, FAM-CGY stock solution (500 μM) was diluted into 5 μM with 10 mM HEPES buffer where pH values were adjusted with 1 M HCl or 1 M NaOH, respectively.
Different molar rates of siRNA were added to the FAM-CGY peptide solution (50 μM/L) dropwise in saline solution and incubated for 30 min. […] The atomic force microscopy (AFM) (FIG. 22A), nanoparticle tracking analysis (NTA) (FIG. 22B), fluorescence microscopy (not shown), dynamic light scattering (DLS) technology (not shown) and transmission electron microscopy (TEM) (FIG. 23) were employed to characterize the siRNA/FAM-CGY complex. […]

hCMEC/D3 cells [7] = test: delivery of cargo peptides by Rh-CGY or CGY peptidic complexes (microscopy, FACS); type: cell-based, human; details: 10 μM Rh-CGY or CGY peptide, 24 h
Method: Peptidic complexes were formed by drop addition of cargoes (FAM-(C)-NAP, FAM-GYR, FAM-NAP, FAM) to 80 μM rhodamine-conjugated CGY peptide (Rh-CGY) or 80 μM CGY peptide (Table X) in MilliQ (MQ) water with equitable liquid volume and incubated for 60 min. The mixture was diluted with MQ water to a final Rh-CGY or CGY peptide concentration of 10 μM. The peptidic complexes were characterized by NTA for size and electron microscopy (EM) for mophology. Western blot was also employed to detect disulfide bond, which form between the cargo and Rh-CGY peptide or CGY peptide. Briefly, the peptide or complex samples were loaded on 10% Bis-Tris mini gels (Invitrogen, CA, USA) and subjected to electrophoresis. The separated samples were electrophoretically transferred to PVDF membranes by use of an iBlot™ Gel Transfer Device (Life Technologies, USA). Membranes were blocked for 1 h at room temperature in 3% BSA/TBST (137 mM Sodium Chloride, 20 mM Tris, 0.1% Tween-20, pH 7.6), and incubated over night at 4° C. with HRP-Goat anti-Fluorescein antibody (diluted 1:1000 in 2% BSA/TBST). For detection, membranes were incubated with Novex® ECL Chemiluminescent Substrate Reagent Kit (Invitrogen, CA, USA).
Delivery peptide to hCMEC/D3 cells. […] Live cell images were obtained by widefield microscopy, and the intercellular fluorescence intensity was quantified by FACS.

5-FAM-dCys-dGly-dTyr-dArg-dPro-dVal-dHis-dAsn-dIle-dArg-dGly-dHis-dTrp-dAla-dPro-dGly [FAM-d-CGY]
LDH leakage in the medium compared to the control (hCMEC/D3 cells [1]): did not significantly increase

CC[C@H](C)[C@H](NC(=O)[C@H](CC(N)=O)NC(=O)[C@H](Cc1c[nH]cn1)NC(=O)[C@@H](NC(=O)[C@@H]1CCCN1C(=O)[C@H](CCCNC(=N)N)NC(=O)[C@H](Cc1ccc(O)cc1)NC(=O)CNC(=O)[C@H](CS)NC(=O)c1ccc2c(c1)C(=O)OC21c2ccc(O)cc2Oc2cc(O)ccc21)C(C)C)C(=O)N[C@@H](CCCNC(=N)N)C(=O)NCC(=O)N[C@@H](Cc1c[nH]cn1)C(=O)N[C@@H](Cc1c[nH]c2ccccc12)C(=O)N[C@@H](C)C(=O)N1CCC[C@H]1C(=O)NCC(=O)O [FAM-CGY] (5FAM-CGYRPVHNIRGHWAPG-OH)
LDH leakage in the medium compared to the control (hCMEC/D3 cells [1]): did not significantly increase
cytotoxicity (LDH assay) (hCMEC/D3 cells [1]): no significant cytotoxicity
effect on the level of complement activation products SC5d-9, C5a, and C3a [2]: no significant effect

Cys-Gly-Tyr-Arg-Pro-Val-His-Asn-Ile-Arg-Gly-His-Trp-Ala-Pro-Gly-Lys-5-FAM (CGYRPVHNIRGHWAPGK(5FAM); not fully specified (C-terminus); printed as Cys-Gly-Tyr-Arg-Pro-Val-His-Asn-Ile-Arg-Gly-His-Trp-Ala-Pro-Gly-Lys-5-FAM) [CGY-FAM]
LDH leakage in the medium compared to the control (hCMEC/D3 cells [1]): did not significantly increase

FAM-GYR-GYR: FAM-labelled double peptide containing SEQ ID NO: 2, two GYR sequences joined by a glycine residue ({FAM}-GYRPVHNIRGHWAPGGGYRPVHNIRGHWAPG)
uptake compared with FAM-CGY peptide (FACS) (hCMEC/D3 cells [3]): considerably higher uptake

GYRPVHNIRGHWAPG [SEQ ID NO: 1, targeting peptide of WO2011/005098]
liposome uptake when peptide is coupled to liposomes [4]: did not significantly increase liposome uptake

GYRPVHNIRGHWAPGGGYRPVHNIRGHWAPG [DP]
translocation of plasmids into cells (hCMEC/D3 cells [5]; charge ratios of peptide/DNA more than 20): able to mediate translocation of plasmids into cells
transfection efficiency (GFP fluorescence intensity) (hCMEC/D3 cells [5]; peptide/DNA charge ratio 40:1, 48 h): comparable with commercial transfection reagent Lipofectamine® 2000

Rh-CGY: Rhdomine B conjugated with CGY peptide in the N-terminal (RhodamineB-CGYRPVHNIRGHWAPG)
mean (average) size of self-assembly (NTA) [6]: 131±60 nm
mode (modal size) of self-assembly (NTA) [6]: 94 nm
uptake / delivery of cargo into hCMEC/D3 cells (hCMEC/D3 cells [7]): can efficiently enter the hCMEC/D3 cells
